Measurements: paper PMC6949133, “Application of a novel regulatable Cre recombinase system to define the role of liver and gut metabolism in drug oral bioavailability” (The Biochemical journal, 2015)

Experiments:
[1] = tested on: PhIP-DNA adducts in the colon; parameters: method as in PMID 21940903; settings: RCN mice dosed orally with PhIP 2 weeks after 3MC, compared with PhIP alone; cited from earlier work
[2] = tested on: POR; assay: POR expression by Western blot/densitometry in tissues of ERL mice after Cyp1a1 inducer; assay type: in vivo, mouse
Procedure: (§1) Single doses of βNF (80 mg/kg body weight as a suspension in corn oil) were administered intraperitoneally (i.p.). Doses of 3MC between 0.5 and 40 mg/kg body weight (single injections) were administered i.p. in corn oil; in some experiments, three daily doses were administered, as detailed in the Figure legends. Mice were killed at the same time of day by a rising concentration of CO2 9 or 14 days after dosing and the following tissues removed and snap-frozen in liquid nitrogen: liver, lung, kidney, small intestine, large intestine, spleen and skin. Samples were then stored at − 80°C until processing for sub-cellular fractions.
Microsomal fractions were prepared as described previously and stored at − 70°C until required. Microsomal protein concentrations were determined using the Bio-Rad Protein Assay Reagent (Bio-Rad Laboratories) and Western blot analysis was preformed as described previously using polyclonal antisera to rat P450s and POR [27, 28]. Immunoreactive proteins were detected using horseradish peroxidase (HRP)-conjugated polyclonal goat anti-rabbit, anti-mouse or anti-sheep immunoglobulin secondary antibodies, as appropriate (Dako). Bands were visualized using Immobilon™ chemiluminescent HRP-conjugated substrate (Millipore) and a FUJIFILM LAS-3000 mini imaging system (Fujifilm UK.). Densitometric analysis was performed using Multi Gauge V2.2 software (Fujifilm UK).

[3] = Tolerability and gross liver phenotype of ERL mice after inducer dosing; assay type: in vivo, mouse
Procedure: as §1
The effects of a single dose of the polycyclic aromatic hydrocarbon AhR ligand βNF (80 mg/kg i.p.) on ERL mice were investigated in initial range-finding experiments (Figure 2A). Liver and small intestine tissues were harvested 9 or 14 days after dosing. […] On post mortem examination, βNF treated ERL mice had pale, mottled, enlarged livers which weighed approximately 60% more than those of either corn oil treated ERL mice or βNF treated WT animals. This phenotype is characteristic of POR deletion and is also observed in HRN and RCN animals. The effect on POR expression in the ERL liver and small intestine of a single dose of βNF (80 mg/kg i.p.) was similar to that observed in RCN mice following four daily doses (compare Figure 2A with Figure 1 of Finn et al.).
Both ERL and WT animals lost weight in response to this treatment.

[4] = tested on: P450; assay: P450-mediated substrate turnover in liver of treated ERL mice; assay type: in vivo, mouse; settings: 3MC 40 mg/kg, n=6
Procedure: (§2) The low levels of cytochrome c reduction detected in the small intestine were further decreased (by 78%) in ERL animals treated with 40 mg/kg 3MC (36.2 ± 15.6 compared with 8.2 ± 3.3 nmol cytochrome c reduced/min/mg respectively, n = 3, mean + S.D., P < 0.01). No P450 activity was detected in small intestinal microsomes from either WT or ERL animals.

[5] = tested on: POR; assay: POR activity in microsomes of treated ERL mice, cytochrome c reduction; assay type: in vivo, mouse
Procedure: as §2

[6] = In vivo pharmacokinetics of probe drugs in WT and ERL (POR-deleted) mice, blood LC-MS/MS; settings: for Cl / Cmax: mean ± S.D., n=3; for Cmax: po
Procedure: WT and ERL mice (n = 3) were pre-treated with corn oil or 3MC (4 or 40 mg/kg). A single dose of midazolam (5 mg/kg p.o.), or nelfinavir (50 mg/kg p.o.) or paroxetine (10 mg/kg p.o.) was administered on day 14 after 3MC treatment. Whole blood (10 μl) was taken from the tail vein at timed intervals after drug administration and transferred into a tube containing heparin (10 μl, 15 IU/ml).
For midazolam analysis, internal standard solution (10 μl; 500 ng of caffeine and 500 ng of resorpine) was added and proteins were precipitated using methanol (75 μl), followed by 8% sulfosalicylic acid (55 μl). Samples were mixed for 1 min and centrifuged at 13 000 g for 5 min. The supernatant was analysed for midazolam and the two internal standards by LC–MS/MS, as described previously. Standard curves were constructed by spiking blank blood samples with known amounts of midazolam. Extraction and protein precipitation were carried out as outlined above for the test samples.
For nelfinavir and paroxetine analysis, mouse blood extraction was performed by a method based on protein precipitation using acetonitrile containing sulfadimethoxine (100 ng/ml) as internal standard. Samples were vortex mixed for 1 min followed by centrifugation at 2800 g for 10 min. Supernatants were analysed by UPLC–MS/MS using a Xevo TQs mass spectrometer (Waters). Nelfinavir, paroxetine and sulfadimethoxine were separated on an Acquity UPLC BEH C18 column (1.7 μm particle size, 50 × 2.1 mm i.d.) by gradient elution with acetonitrile and water at a flow rate 0.6 ml/min. The cycle time of each analysis was 3 min. Matrix effects were assessed by dilution. Quantification of the analytes was performed in electrospray positive ionization mode using multiple reaction monitoring.
Pharmacokinetic parameters were calculated using WinNonLin software, version 3.1. A simple non-compartmental model was used to calculate the area under the curve (AUC), terminal half-life, Cmax and clearance. Statistical analysis of pharmacokinetic data was carried out using Student’s t tests.

[7] = liver and gut POR deletion compared with WT/control
[8] = liver only POR deletion relative to control

Cn1c(N)nc2ncc(-c3ccccc3)cc21 [PhIP, 2-amino-1-methyl-6-phenylimidazo[4,5-b]pyridine]
reduction of adduct formation in the colon [1]: 50%

Cc1ccc2cc3c(ccc4ccccc43)c3c2c1CC3 [3MC, 3-methylcholanthrene]
residual hepatic POR expression (densitometric quantification) ([2]; ERL mice, 3MC 40 mg/kg i.p., results not shown): < 4%
single dose required for knockdown in both liver and small intestine ([2]; ERL mice, i.p.): 20 to 40 mg/kg
single dose for knockdown of hepatic POR expression ([2]; ERL mice, i.p., liver only): 4 mg/kg
POR knockdown in large intestine ([2]; ERL mice, three daily doses of 3MC 40 mg/kg/day i.p., harvested 14 days after initial dose): 50%
dose needed to knockdown POR in liver of ERL mice, lower than in RCN animals ([2]; ERL vs RCN animals (ref 20)): 10 fold
increase in liver weight ([3]; single dose 3MC 40 mg/kg i.p., post mortem): 60–90%
reduction in P450-mediated turnover of 7-benzyloxy-4-(trifluoromethyl)-coumarin [4]: 95%
reduction in P450-mediated turnover of methoxyresorufin [4]: 70%
decrease of cytochrome c reduction in small intestine ([5]; ERL animals treated with 40 mg/kg 3MC): 78%
hepatic POR activity as % of WT ([5]; livers from ERL mice 14 days after 3MC 40 mg/kg): approximately 4%
hepatic POR activity (cytochrome c reduction) ([5]; livers from ERL mice 14 days after 3MC 40 mg/kg, n=3, mean ± S.D., WT 60.3 ± 20.8): 2.2 ± 1.9 nmol cytochrome c reduced/min/mg
cytochrome c reduction in small intestine ([5]; small intestine of ERL animals treated with 40 mg/kg 3MC, n=3, mean ± S.D., comparator 36.2 ± 15.6): 8.2 ± 3.3 nmol cytochrome c reduced/min/mg

Fc1ccc([C@@H]2CCNC[C@H]2COc2ccc3c(c2)OCO3)cc1 [Paroxetine, paroxetine]
increase in half-life ([6]; ERL (Por^lox/lox/Cre^Cyp1a1-KI), control: WT (Por^lox/lox), mouse, in vivo): 3.5 fold
change in Cmax ([6]; mouse, in vivo): essentially unchanged
decrease in clearance ([6]; mouse, in vivo): ~ 3 fold
increase in AUC ([6]; mouse, in vivo): 1.5 fold

O=c1cc(-c2ccccc2)oc2ccc3ccccc3c12 [βNF, β-naphthoflavone]
body weight loss over the course of the treatment ([3]; single dose βNF 80 mg/kg i.p.): 2 to 4 g
increase in liver weight vs corn oil treated ERL or βNF treated WT ([3]; single dose βNF 80 mg/kg i.p., 9 or 14 days): approximately 60%

Cc1ncc2n1-c1ccc(Cl)cc1C(c1ccccc1F)=NC2 [Midazolam, midazolam]
Cl ([6]; Control (WT + corn oil), single p.o. dose nelfinavir 50 mg/kg, paroxetine 10 mg/kg or midazolam 5 mg/kg): 113 ± 35 mL/min/kg
Cmax ([6]; ERL (Por^lox/lox/Cre^Cyp1a1-KI), mouse, in vivo, Liver and gut null (ERL + 3MC 40 mg/kg, day 14), single p.o. dose nelfinavir 50, paroxetine 10 or midazolam 5 mg/kg): 4460 ± 1530 ng/mL
Cmax ([6]; ERL (Por^lox/lox/Cre^Cyp1a1-KI), mouse, in vivo, Liver null (ERL + 3MC 4 mg/kg, day 14), single p.o. dose nelfinavir 50, paroxetine 10 or midazolam 5 mg/kg): 1850 ± 340 ng/mL
Cl ([6]; Liver and gut null (ERL + 3MC 40 mg/kg, day 14), single p.o. dose nelfinavir 50, paroxetine 10 or midazolam 5 mg/kg): 4.3 ± 0.9^••◦ ml/min/kg
Cl ([6]; Liver null (ERL + 3MC 4 mg/kg, day 14), single p.o. dose nelfinavir 50, paroxetine 10 or midazolam 5 mg/kg): 13 ± 5 mL/min/kg
Cmax ([6]; WT (Por^lox/lox), mouse, in vivo, Control (WT + corn oil), single p.o. dose nelfinavir 50 mg/kg, paroxetine 10 mg/kg or midazolam 5 mg/kg): 610 ± 110 ng/mL
increase in AUC [6, 7]: 22.9 fold
increase in Cmax [6, 7]: 7.3 fold
increase in half-life [6, 7]: 1.6 fold
decrease in clearance ([6]; liver and gut POR deletion relative to control): 26.3 fold
decrease in clearance [6, 8]: 9 fold
increase in AUC [6, 8]: 9 fold
increase in Cmax [6, 8]: 3 fold
